Source: paper PMC11672294, “The Antipsychotic Drug Aripiprazole Suppresses Colorectal Cancer by Targeting LAMP2a to Induce RNH1/miR‐99a/mTOR‐Mediated Autophagy and Apoptosis” (Advanced Science, 2024)
Structures can show the parent of a compound that is named as a salt.

Each compound was assayed on HT29. Conditions: 72 h, relative to DMSO, 10 µM, Relative cell viability (%).
Source text: To investigate the key signaling pathways and biological processes involved in CRC progression, we analyzed the National Center for Biotechnology Information Gene Expression Omnibus (GEO) dataset GSE115313, which included 42 CRC and paired normal tissues (Figure 1A). […] Next, we performed an Annexin V‐fluorescein isothiocyanate (FITC)/propidium iodide (PI) staining assay to determine the effect of aripiprazole on apoptosis in CRC cells. […] A) Principal component analysis of GEO dataset (GSE115313), which includes 42 CRC and paired normal tissues. B) Gene Ontology pathway analysis of the DEPs between CRC and paired normal tissues. […] D) Schematic diagram for identifying anticancer drugs amongst an US Food and Drug Administration‐approved small‐molecule library (616 compounds) using WST‐1 assay. E) HT29 cells were treated with the 616 drugs (10 µM) individually or with dimethyl sulfoxide for 72 h, followed by WST‐1 assay. […] J) Mice bearing HT29‐derived tumor xenografts were intragastrically administered with aripiprazole (10 or 20 mg kg^−1) once every 2 d, n = 6 mice/group. […] Bars, SD; ^* p < 0.05; ^** p < 0.01; ^*** p < 0.001; ns, no significant difference. The WST‐1 Cell Proliferation and Cytotoxicity Assay Kit (Beyotime Biotechnology, Shanghai, China) was used to measure cell viability, as described previously.^[ [10] ^] CRC cells were seeded into 96‐well plates and treated with different drug concentrations. Following that, WST‐1 was added to the plate and incubated with the cells for 2 h, at 37 °C. Absorbance at the wavelength of 450 nm was measured using an automated microplate spectrophotometer (BioTek Instruments, Winooski, VT, USA).
COc1ccccc1Oc1c(NS(=O)(=O)c2ccc(C(C)(C)C)cc2)nc(-c2ncccn2)nc1OCCO [Bosentan Hydrate] was tested, and the “Relative cell viability (%)” value was 83.98%.

Same assay, conditions: 72 h, relative to DMSO; 10 µM
With CCCOc1ccc(C(=O)OCCN(CC)CC)cc1N [Proparacaine HCl] the “Relative cell viability (%)” value was 89.41%. In the case of CC(C)Oc1ccc(-c2nc(-c3cccc4c3CC[C@@H]4NCCO)no2)cc1C#N [Ozanimod (RPC1063)], the “Relative cell viability (%)” value was 47.01%. For NNC(=O)c1ccncc1 [Isoniazid], the “Relative cell viability (%)” value was 140.3%. CN1CCC(=C2c3ccccc3CC(=O)c3sccc32)CC1 [Ketotifen Fumarate] was tested, and the “Relative cell viability (%)” value was 182.5%. For CC1(C)[C@H](C(=O)O)N2C(=O)C[C@H]2S1(=O)=O [Sulbactam], the “Relative cell viability (%)” value was 199.5%. With Clc1ccc(C(Cn2ccnc2)OCc2ccc(Sc3ccccc3)cc2)c(Cl)c1 (centres unmarked) [Fenticonazole Nitrate] the “Relative cell viability (%)” value was 58.4%. With Cc1ccccc1C(=O)Nc1ccc(C(=O)N2CCCC(O)c3cc(Cl)ccc32)c(C)c1 (centres unmarked) [Tolvaptan] the “Relative cell viability (%)” value was 54.85%. With O=c1oc2cc(O)ccc2s1 [Tioxolone] the “Relative cell viability (%)” value was 114.6%. For OC[C@H]1OC(O)[C@H](O)[C@@H](O)[C@@H]1O (some centres unmarked) [Dextrose], the “Relative cell viability (%)” value was 126.7%. For CCOC(=O)c1ncn2c1CN(C)C(=O)c1cc(F)ccc1-2 [Flumazenil], the “Relative cell viability (%)” value was 80.53%. For CC1=C(/C=C/C(C)=C/C=C/C(C)=C\C(=O)O)C(C)(C)CCC1 [Isotretinoin], the “Relative cell viability (%)” value was 60.28%. Cc1cc(/C=C/C#N)cc(C)c1Nc1ccnc(Nc2ccc(C#N)cc2)n1 [Rilpivirine] was tested, and the “Relative cell viability (%)” value was 58.55%. Cc1cc(O)ccc1Cl [Chlorocresol] was tested, and the “Relative cell viability (%)” value was 65.76%. In the case of O=P1(N(CCCl)CCCl)NCCCO1 (centres unmarked) [Cyclophosphamide Monohydrate], the “Relative cell viability (%)” value was 130.7%. For CN1CCC(=C2c3ccccc3C=Cc3ccccc32)CC1 [Cyproheptadine HCl], the “Relative cell viability (%)” value was 44.58%. With CC(=O)c1cc2c(o1)C(=O)c1ccccc1C2=O [Napabucasin] the “Relative cell viability (%)” value was 0%. For Cc1ccc([C@@H]2O[C@H](CO)[C@@H](O)[C@H](O)[C@H]2O)cc1Cc1ccc(-c2ccc(F)cc2)s1 [Canagliflozin], the “Relative cell viability (%)” value was 72.33%. COC(=O)C1=C(C)NC(C)=C(C(=O)O[C@@H]2CCCN(Cc3ccccc3)C2)[C@@H]1c1cccc([N+](=O)[O-])c1 (racemic) [Benidipine HCl] was tested, and the “Relative cell viability (%)” value was 75.78%. CC1(C)CCC(C)(C)c2cc(NC(=O)c3ccc(C(=O)O)cc3)ccc21 [Tamibarotene] was tested, and the “Relative cell viability (%)” value was 94.85%. In the case of CC1=C(CC(=O)O)c2cc(F)ccc2/C1=C\c1ccc([S+](C)[O-])cc1 (centres unmarked) [Sulindac], the “Relative cell viability (%)” value was 216.9%. For CN(C)CCC(c1ccc(Cl)cc1)c1ccccn1 (centres unmarked) [Chlorpheniramine Maleate], the “Relative cell viability (%)” value was 102.1%. In the case of CCN(CC)CCNC(=O)c1cc(Cl)c(N)cc1OC [MetoclopraMide HCl], the “Relative cell viability (%)” value was 75.76%. In the case of CC(C)(C)c1nc(-c2cccc(NS(=O)(=O)c3c(F)cccc3F)c2F)c(-c2ccnc(N)n2)s1 [Dabrafenib (GSK2118436)], the “Relative cell viability (%)” value was 37.38%. In the case of C[C@@H](CN1CC(=O)NC(=O)C1)N1CC(=O)NC(=O)C1 [Dexrazoxane HCl (ICRF-187, ADR-529)], the “Relative cell viability (%)” value was 75.86%. For O=C(O)c1cc(=O)c2ccccc2o1 [Chromocarb], the “Relative cell viability (%)” value was 81.21%. NC12CC3CC(CC(C3)C1)C2 [Amantadine HCl] was tested, and the “Relative cell viability (%)” value was 105.5%. With CN1CCC[C@@H]1CCO[C@](C)(c1ccccc1)c1ccc(Cl)cc1 [Clemastine Fumarate] the “Relative cell viability (%)” value was 16.95%. CC#C[C@]1(O)CC[C@H]2[C@@H]3CCC4=CC(=O)CCC4=C3[C@@H](c3ccc(N(C)C)cc3)C[C@@]21C [Mifepristone] was tested, and the “Relative cell viability (%)” value was 46.12%. With CCCCCCOC(=O)NC(=N)c1ccc(NCc2nc3cc(C(=O)N(CCC(=O)OCC)c4ccccn4)ccc3n2C)cc1 [Dabigatran Etexilate] the “Relative cell viability (%)” value was 102%. With O=C(C[S+]([O-])Cc1ccco1)NC/C=C\COc1cc(CN2CCCCC2)ccn1 (centres unmarked) [Lafutidine] the “Relative cell viability (%)” value was 119.6%. In the case of C[C@@H]1C[C@H]2[C@@H]3CCC4=CC(=O)C=C[C@]4(C)[C@@]3(F)[C@@H](O)C[C@]2(C)[C@@]1(O)C(=O)CO [Dexamethasone (DHAP)], the “Relative cell viability (%)” value was 75.86%. For C#C[C@]1(O)CC[C@H]2[C@@H]3CCc4cc(OC)ccc4[C@H]3CC[C@@]21C [Mestranol], the “Relative cell viability (%)” value was 119.6%. CC[C@@H](C(N)=O)N1CCCC1=O [Levetiracetam] was tested, and the “Relative cell viability (%)” value was 78.97%. With COc1c(N2CCNC(C)C2)c(F)cc2c(=O)c(C(=O)O)cn(C3CC3)c12 (centres unmarked) [Gatifloxacin] the “Relative cell viability (%)” value was 96.11%. O=C(O)Cc1cc(I)c(Oc2ccc(O)c(I)c2)c(I)c1 [Tiratricol] was tested, and the “Relative cell viability (%)” value was 83.03%. In the case of COc1cc(NS(=O)(=O)c2ccc(N)cc2)nc(OC)n1 [Sulphadimethoxine], the “Relative cell viability (%)” value was 86.06%. CC[C@@H]1C(=O)N(C)c2cnc(Nc3ccc(C(=O)N[C@H]4CC[C@H](N5CCN(CC6CC6)CC5)CC4)cc3OC)nc2N1C(C)C [Volasertib (BI 6727)] was tested, and the “Relative cell viability (%)” value was 88.41%. With CC(=O)O[C@@]12CO[C@@H]1C[C@H](O)[C@@]1(C)C(=O)[C@H](O)C3=C(C)[C@@H](OC(=O)[C@H](O)[C@@H](NC(=O)OC(C)(C)C)c4ccccc4)C[C@@](O)([C@@H](OC(=O)c4ccccc4)[C@H]21)C3(C)C [Docetaxel Trihydrate] the “Relative cell viability (%)” value was 23.93%. CC1Cc2ccccc2N1NC(=O)c1ccc(Cl)c(S(N)(=O)=O)c1 (centres unmarked) [Indapamide] was tested, and the “Relative cell viability (%)” value was 71.61%. For CC(=O)O[C@]1(C(C)=O)CC[C@H]2[C@@H]3C=C(Cl)C4=CC(=O)[C@@H]5C[C@@H]5[C@]4(C)[C@H]3CC[C@@]21C [Cyproterone Acetate], the “Relative cell viability (%)” value was 132.9%. For O=c1[nH]c(=O)n([C@H]2C[C@H](O)[C@@H](CO)O2)cc1I [Idoxuridine], the “Relative cell viability (%)” value was 86.86%. In the case of CC[C@@H]([C@H](C)O)n1ncn(-c2ccc(N3CCN(c4ccc(OC[C@@H]5CO[C@@](Cn6cncn6)(c6ccc(F)cc6F)C5)cc4)CC3)cc2)c1=O [Posaconazole], the “Relative cell viability (%)” value was 32.24%. With Nc1ncnc2c1ncn2[C@@H]1O[C@H](CO)[C@@H](O)[C@@H]1O [Vidarabine] the “Relative cell viability (%)” value was 74.15%. For CNCCC(Oc1ccc(C(F)(F)F)cc1)c1ccccc1 (centres unmarked) [Fluoxetine HCl], the “Relative cell viability (%)” value was 86.76%. With COC(=O)C1=C(C)NC(C)=C(C(=O)OCC(C)C)C1c1ccccc1[N+](=O)[O-] (centres unmarked) [Nisoldipine] the “Relative cell viability (%)” value was 56.36%. With COc1ccc(C(=O)c2ccccc2)c(O)c1 [Oxybenzone] the “Relative cell viability (%)” value was 118.8%. In the case of Cc1c(Cl)cccc1Nc1ccccc1C(=O)O [Tolfenamic Acid], the “Relative cell viability (%)” value was 166.2%. With CCOc1cc2ncc(C#N)c(Nc3ccc(OCc4ccccn4)c(Cl)c3)c2cc1NC(=O)/C=C/CN(C)C [Neratinib (HKI-272)] the “Relative cell viability (%)” value was 97.84%. With CN(C)/N=N/c1[nH]cnc1C(N)=O [Dacarbazine] the “Relative cell viability (%)” value was 91.43%. For CN(Cc1cc(Br)cc(Br)c1N)C1CCCCC1 [Bromhexine HCl], the “Relative cell viability (%)” value was 122.9%. In the case of CCn1c(=O)c(-c2cc[nH]n2)cc2c(C)nc(N)nc21 [Voxtalisib (XL765, SAR245409)], the “Relative cell viability (%)” value was 31.62%. O=C(NC1CCN(CCCCC2(C(=O)NCC(F)(F)F)c3ccccc3-c3ccccc32)CC1)c1ccccc1-c1ccc(C(F)(F)F)cc1 [Lomitapide Mesylate] was tested, and the “Relative cell viability (%)” value was 0%. C[C@H](NC(=O)C(=O)Nc1ccccc1C(C)(C)C)C(=O)N[C@@H](CC(=O)O)C(=O)COc1c(F)c(F)cc(F)c1F [Emricasan] was tested, and the “Relative cell viability (%)” value was 86.75%. NC(CO)C(=O)NNCc1ccc(O)c(O)c1O (centres unmarked) [Benserazide HCl] was tested, and the “Relative cell viability (%)” value was 108.4%. With O=C(O)C[C@H](O)C[C@H](O)/C=C/c1c(C2CC2)nc2ccccc2c1-c1ccc(F)cc1 [Pitavastatin Calcium] the “Relative cell viability (%)” value was 44.92%. In the case of CCOC(=O)c1cncn1[C@H](C)c1ccccc1 [Etomidate], the “Relative cell viability (%)” value was 60.28%. O=C(O)c1cn(-c2ccc(F)cc2)c2cc(N3CCNCC3)c(F)cc2c1=O [Sarafloxacin HCl] was tested, and the “Relative cell viability (%)” value was 85.35%. For C[C@H](Nc1ncnc2[nH]cnc12)c1cc2cccc(Cl)c2c(=O)n1-c1ccccc1 [IPI-145 (INK1197)], the “Relative cell viability (%)” value was 79.06%.
